From patent USRE47302E1 (ONYX THERAPEUTICS INC., priority 2013, dated 2019) come the findings set out here.

Data set [1] addresses T1, proteasome subunit β5 (beta5) (Homo sapiens, UniProt P28074).
T1 construct: Lysate from the human acute lymphoblastic leukemia cell line, MOLT-4; endogenous in cells; host or cells: MOLT-4
In words: Proteasome active-site ELISA (ProCISE), beta5, MOLT-4 lysate. It is filed as biochemical. The protocol: (§1) Test compounds were serially diluted in DMSO at 100× concentration, then diluted to 10× in aqueous hypotonic lysis buffer. Lysate from the human acute lymphoblastic leukemia cell line, MOLT-4, was treated for 1 hour at 25° C. with compound at a final 1× concentration. […] Following, lysate was denatured in guanidine hydrochloride, and subunits bound to probe were isolated with streptavidin-conjugated sepharose beads. Individual subunits (e.g., β5, LMP7, LMP2, MECL-1) were probed with subunit-specific primary antibodies, followed by HRP-conjugated secondary antibodies. A chemiluminescent substrate was used to generate signal associated with HRP binding, which was detected on a plate reader. Luminescent signal was normalized to protein content, then, percent activity calculated relative to DMSO-treated controls to generate IC50 curves.
(In an ELISA, binding on a coated surface is turned into a signal by an enzyme label.)

The next data set can be described thus: Solubility pH 7. The conditions noted are these: for solubility: pH 7, aqueous buffer.
Data set [2] concerns the target T2, immunoproteasome subunit LMP7 (Homo sapiens, UniProt P28062).
T2 construct: Lysate from the human acute lymphoblastic leukemia cell line, MOLT-4; endogenous in cells; host or cells: MOLT-4
In words: Proteasome active-site ELISA (ProCISE), LMP7, MOLT-4 lysate. It counts as biochemical. On the procedure: as §1

The mark [3] stands for this setting: MOLT4 lysate, 1 h continuous treatment, 25° C.
Setting [4] is: MOLT4 lysate, human, 1 h continuous treatment, 25° C.

≈ marks a conversion by molar mass, not a printed value. Read-outs that look alike come from different tables or passages of the source.

The term IC50 denotes the midpoint of a concentration-inhibition curve. `COc1ccc(C[C@H](NC(=O)[C@@H](C)NC(=O)[C@H]2CC[C@H](O)CC2)C(=O)N[C@@H](CC2CCCC2)C(=O)[C@@]2(C)CO2)cc1O` [Compound C-1072, (1r,4R)-N-((R)-1-(((S)-1-(((S)-3-cyclopentyl-1-((R)-2-methyloxiran-2-yl)-1-oxopropan-2-yl)amino)-3-(3-hydroxy-4-methoxyphenyl)-1-oxopropan-2-yl)amino)-1-oxopropan-2-yl)-4-hydroxycyclohexanecarboxamide]: the concentration for half-maximal inhibition (IC50) in data set [1] (read-out: ProCISE beta5 MOLT4 lysate Hu 1 h CONT: IC50, MOLT4 lysate, human, 1 h continuous treatment, 25° C.) was 3390 nM; in data set [2] (read-out: ProCISE LMP7 MOLT4 lysate Hu 1 h CONT: IC50, 1 h continuous treatment, 25° C.) it was 39.7 nM. The “Solubility pH 7 (μg/mL)” value in the data set “Solubility pH 7” (pH 7) amounted to 4742.65 μg/mL.

By solubility is commonly meant the dissolved amount per volume that the medium holds. With `COc1ccc(C[C@H](NC(=O)[C@@H](C)NC(=O)[C@H]2CC[C@H](O)CC2)C(=O)N[C@@H](CC2CC=CC2)C(=O)[C@@]2(C)CO2)cc1` [Compound C-1074, (1r,4R)-N-((R)-1-(((S)-1-(((S)-3-(cyclopent-3-en-1-yl)-1-((R)-2-methyloxiran-2-yl)-1-oxopropan-2-yl)amino)-3-(4-methoxyphenyl)-1-oxopropan-2-yl)amino)-1-oxopropan-2-yl)-4-hydroxycyclohexanecarboxamide], the IC50 was found to be 778 nM in data set [1] and 26.2 nM in data set [2] (setting [3]). In “Solubility pH 7”, this compound yielded a solubility of 1150 µg/mL (≈ 2020 µM).

For the compound `COc1ccc(C[C@H](NC(=O)[C@@H](C)NC(=O)[C@H]2CC[C@@H](O)C2)C(=O)N[C@@H](CC2CCCC2)C(=O)[C@@]2(C)CO2)cc1` [Compound C-1075, (1S,3R)-N-((R)-1-(((S)-1-(((S)-3-cyclopentyl-1-((R)-2-methyloxiran-2-yl)-1-oxopropan-2-yl)amino)-3-(4-methoxyphenyl)-1-oxopropan-2-yl)amino)-1-oxopropan-2-yl)-3-hydroxycyclopentanecarboxamide], the IC50 in data set [1] (setting [4]) was determined as 788 nM; in data set [2] (setting [3]) it was 92.1 nM. The compound further displayed a solubility in “Solubility pH 7” of 1650 µg/mL (≈ 2950 µM).

`COc1ccc([C@@H](O)[C@H](NC(=O)[C@@H](C)NC(=O)[C@H]2CC[C@H](O)CC2)C(=O)N[C@@H](CC2CCCC2)C(=O)[C@@]2(C)CO2)cc1` [Compound C-1079, (1r,4R)-N-((R)-1-(((2S,3R)-1-(((S)-3-cyclopentyl-1-((R)-2-methyloxiran-2-yl)-1-oxopropan-2-yl)amino)-3-hydroxy-3-(4-methoxyphenyl)-1-oxopropan-2-yl)amino)-1-oxopropan-2-yl)-4-hydroxycyclohexanecarboxamide]: the half-maximal inhibitory concentration (IC50) in data set [1] (setting [4]) was determined as 2230 nM; in data set [2] (setting [3]), 34.6 nM. In addition, in “Solubility pH 7”, the solubility is 2050 µg/mL (≈ 3490 µM).

For the compound `COc1ccc([C@@H](O)[C@H](NC(=O)[C@H](C)NC(=O)CN2CCOCC2)C(=O)N[C@@H](CC2=CCCCC2)C(=O)[C@@]2(C)CO2)cc1` [Compound C-1082, (2S,3R)-N-((S)-3-(cyclohex-1-en-1-yl)-1-((R)-2-methyloxiran-2-yl)-1-oxopropan-2-yl)-3-hydroxy-3-(4-methoxyphenyl)-2-((S)-2-(2-morpholinoacetamido)propanamido)propanamide], the IC50 in data set [1] (setting [4]) was 3530 nM; in data set [2] (setting [3]) it was 86.6 nM. This compound yielded a solubility in the data set “Solubility pH 7” of 6130 µg/mL (≈ 10200 µM).

Consider `COc1ccc([C@@H](O)[C@H](NC(=O)[C@H](C)NC(=O)CN2CCOCC2)C(=O)N[C@@H](CC2=CCCC2)C(=O)[C@@]2(C)CO2)cc1` [Compound C-1083, (2S,3R)-N-((S)-3-(cyclopent-1-en-1-yl)-1-((R)-2-methyloxiran-2-yl)-1-oxopropan-2-yl)-3-hydroxy-3-(4-methoxyphenyl)-2-((S)-2-(2-morpholinoacetamido)propanamido)propanamide], for which the results for the IC50 in data set [1] (setting [4]) and in data set [2] (setting [3]) were 561 nM and 40.3 nM, respectively. The compound also came in with a solubility in the data set “Solubility pH 7” of 7070 µg/mL (≈ 12100 µM).

For the compound `COc1ccc(C[C@H](NC(=O)[C@H](C)NC(=O)CN2CCOCC2)C(=O)N[C@@H](CC2=CCCC2)C(=O)[C@@]2(C)CO2)cc1O` [Compound C-1085, (S)-N-((S)-3-(cyclopent-1-en-1-yl)-1-((R)-2-methyloxiran-2-yl)-1-oxopropan-2-yl)-3-(3-hydroxy-4-methoxyphenyl)-2-((S)-2-(2-morpholinoacetamido)propanamido)propanamide], the half-maximal inhibitory concentration (IC50) in data set [1] (setting [4]) stood at 1840 nM; in data set [2] (setting [3]) it was 158 nM. The compound further returned a solubility in the data set “Solubility pH 7” of 8190 µg/mL (≈ 14000 µM).

Regarding `COc1ccc(C[C@H](NC(=O)[C@@H](C)NC(=O)[C@H]2CC[C@](C)(O)CC2)C(=O)N[C@@H](CC2=CCCC2)C(=O)[C@@]2(C)CO2)cc1` [Compound C-1087, (1r,4R)-N-((R)-1-(((S)-1-(((S)-3-(Cyclopent-1-en-1-yl)-1-((R)-2-methyloxiran-2-yl)-1-oxopropan-2-yl)amino)-3-(4-methoxyphenyl)-1-oxopropan-2-yl)amino)-1-oxopropan-2-yl)-4-hydroxy-4-methylcyclohexanecarboxamide], the concentration for half-maximal inhibition (IC50) in data set [1] (setting [4]) was determined as 1750 nM; in data set [2] (setting [3]), 59.9 nM. Moreover, the solubility in the data set “Solubility pH 7” came to 1130 µg/mL (≈ 1930 µM).

In the case of `COc1ccc(C[C@H](NC(=O)[C@@H](C)NC(=O)[C@H]2CC[C@@](C)(O)CC2)C(=O)N[C@@H](CC2=CCCC2)C(=O)[C@@]2(C)CO2)cc1` [Compound C-1088, (1s,4S)-N-((R)-1-(((S)-1-(((S)-3-(cyclopent-1-en-1-yl)-1-((R)-2-methyloxiran-2-yl)-1-oxopropan-2-yl)amino)-3-(4-methoxyphenyl)-1-oxopropan-2-yl)amino)-1-oxopropan-2-yl)-4-hydroxy-4-methylcyclohexanecarboxamide], the concentration for half-maximal inhibition (IC50) came out at 2250 nM in data set [1] (setting [4]) and 132 nM in data set [2] (setting [3]). Further, the solubility in “Solubility pH 7” was determined as 1410 µg/mL (≈ 2420 µM).

Take `COc1ccc(C[C@H](NC(=O)[C@@H](C)NC(=O)[C@H]2CC[C@H](O)CC2)C(=O)N[C@@H](CC2=CCCCC2)C(=O)[C@@]2(C)CO2)cc1` [Compound C-1089, (1r,4R)-N-((R)-1-(((S)-1-(((S)-3-(cyclohex-1-en-1-yl)-1-((R)-2-methyloxiran-2-yl)-1-oxopropan-2-yl)amino)-3-(4-methoxyphenyl)-1-oxopropan-2-yl)amino)-1-oxopropan-2-yl)-4-hydroxycyclohexanecarboxamide]: the concentration for half-maximal inhibition (IC50) in data set [1] (setting [4]) came out at 8970 nM; in data set [2] (setting [3]), 57.6 nM. In the data set “Solubility pH 7”, this compound had a solubility of 985 µg/mL (≈ 1690 µM).

With `COc1ccc(C[C@H](NC(=O)[C@@H](C)NC(=O)[C@H]2CC[C@H](O)CC2)C(=O)N[C@@H](CC2CCC2)C(=O)[C@@]2(C)CO2)cc1` [Compound C-1090, (1r,4R)-N-((R)-1-(((S)-1-(((S)-3-cyclobutyl-1-((R)-2-methyloxiran-2-yl)-1-oxopropan-2-yl)amino)-3-(4-methoxyphenyl)-1-oxopropan-2-yl)amino)-1-oxopropan-2-yl)-4-hydroxycyclohexanecarboxamide], the IC50 is 6630 nM in data set [1] (setting [4]) and 262 nM in data set [2] (setting [3]). The compound also showed a solubility in “Solubility pH 7” of 979 µg/mL (≈ 1760 µM).

With `COc1ccc(C[C@H](NC(=O)[C@@H](CO)NC(=O)[C@H]2CC[C@H](O)CC2)C(=O)N[C@@H](CC2=CCCC2)C(=O)[C@@]2(C)CO2)cc1` [Compound C-1092, (1r,4R)-N-((R)-1-(((S)-1-(((S)-3-(cyclopent-1-en-1-yl)-1-((R)-2-methyloxiran-2-yl)-1-oxopropan-2-yl)amino)-3-(4-methoxyphenyl)-1-oxopropan-2-yl)amino)-3-hydroxy-1-oxopropan-2-yl)-4-hydroxycyclohexanecarboxamide], the IC50 came out at 2040 nM in data set [1] (setting [4]) and 29.3 nM in data set [2] (setting [3]). In addition, the concentration in solution in the data set “Solubility pH 7” (solubility) was 3070 µg/mL (≈ 5240 µM).

Turning to `C[C@@H](NC(=O)[C@H]1CC[C@H](O)CC1)C(=O)N[C@@H](Cc1ccc(S(C)(=O)=O)cc1)C(=O)N[C@@H](CC1=CCCC1)C(=O)[C@@]1(C)CO1` [Compound C-1096, (1r,4R)-N-((R)-1-(((S)-1-(((S)-3-(cyclopent-1-en-1-yl)-1-((R)-2-methyloxiran-2-yl)-1-oxopropan-2-yl)amino)-3-(4-(methylsulfonyl)phenyl)-1-oxopropan-2-yl)amino)-1-oxopropan-2-yl)-4-hydroxycyclohexanecarboxamide], the concentration for half-maximal inhibition (IC50) in data set [1] (setting [4]) was determined as 868 nM; in data set [2] (setting [3]), 25.2 nM. For the same compound, in the data set “Solubility pH 7”, the solubility was 917 µg/mL (≈ 1480 µM).

For the compound `COc1ccc(C[C@H](NC(=O)[C@@H](C)NC(=O)[C@H]2CC[C@@H](O)CC2)C(=O)N[C@@H](CC2=CCCCC2)C(=O)[C@@]2(C)CO2)cc1` [Compound C-1097, (1s,4S)-N-((R)-1-(((S)-1-(((S)-3-(cyclohex-1-en-1-yl)-1-((R)-2-methyloxiran-2-yl)-1-oxopropan-2-yl)amino)-3-(4-methoxyphenyl)-1-oxopropan-2-yl)amino)-1-oxopropan-2-yl)-4-hydroxycyclohexanecarboxamide], the concentration for half-maximal inhibition (IC50) in data set [1] (setting [4]) stood at 322 nM; in data set [2] (setting [3]), 21.6 nM. Further, the solubility in “Solubility pH 7” was found to be 256 µg/mL (≈ 439 µM).

Consider `C[C@@H](NC(=O)[C@H]1CC[C@H](O)CC1)C(=O)N[C@@H](Cc1ccc(C#N)cc1)C(=O)N[C@@H](CC1CCCC1)C(=O)[C@@]1(C)CO1` [Compound C-1103, (1r,4R)-N-((R)-1-(((S)-3-(4-cyanophenyl)-1-(((S)-3-cyclopentyl-1-((R)-2-methyloxiran-2-yl)-1-oxopropan-2-yl)amino)-1-oxopropan-2-yl)amino)-1-oxopropan-2-yl)-4-hydroxycyclohexanecarboxamide], for which the IC50 in data set [1] (setting [4]) turned out to be 1960 nM; in data set [2] (setting [3]), 38.7 nM. Also, the solubility in the data set “Solubility pH 7” turned out to be 2150 µg/mL (≈ 3790 µM).
